Two compounds from PubChem BioAssay (NCI) can be followed below.

Test systems include BT-549 breast; DU-145 prostate; HS 578T breast; MCF7 breast; MDA-MB-231 breast; MDA-N; NCI-H522 lung; NCI/ADR-RES ovarian; OVCAR-4 ovarian; SNB-75 CNS; T-47D breast; DLD-1 colon; DMS 114 small cell lung; DMS 273 small cell lung; HOP-18 NSCLC; LXFL 529 NSCLC; M19-MEL melanoma; NCI-H226 lung; SR leukemia; XF 498 CNS.
Holding throughout (test): NCI-60 cell line screen, 48 h

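Values below derive from 48-hour exposures of cells grown in 96-well plates, with endpoints linearly interpolated between the two concentrations bracketing the appropriate inhibition level. Definition used: TGI = concentration required for complete inhibition of growth.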 A value given as a limit tells only on which side of the number the result lay.

Take `O=Nn1c2ccccc2c2cc([N+](=O)[O-])ccc21`: the TGI in the test with BT-549 breast was found to be 38.3 µM; in the test on DU-145 prostate, 28.5 µM; in the test on HS 578T breast, 82.9 µM; in the test with MCF7 breast, 58 µM; with MDA-MB-231 breast, 39.9 µM; with MDA-N, 37.5 µM. Moreover, the TGI was 29.1 µM with NCI-H522 lung; 74 µM with NCI/ADR-RES ovarian; 32.1 µM in the test with OVCAR-4 ovarian; 19.5 µM in the test with SNB-75 CNS; greater than 100 µM with T-47D breast.

Take `CC(C)OP(=O)(OC(C)C)C1=NN(c2ccc([N+](=O)[O-])cc2)C(P(=O)(OC(C)C)OC(C)C)=NN1c1ccc([N+](=O)[O-])cc1`: the TGI in the test with DLD-1 colon, with DMS 114 small cell lung, in the test with DMS 273 small cell lung, in the test with HOP-18 NSCLC, in the test with LXFL 529 NSCLC and in the test on M19-MEL melanoma was greater than 100 µM throughout. The TGI in the test with NCI-H226 lung, in the test with NCI-H522 lung, in the test with OVCAR-4 ovarian, in the test with SR leukemia and in the test with XF 498 CNS was greater than 100 µM in each case.
